# Source: patent US20230158042A1, “COMBINATION CANCER THERAPY WITH PENTAAZA MACROCYCLIC RING COMPLEX AND HORMONE THERAPY AGENT” (Galera Labs, LLC, priority 2020, published 2023)
# Columns and labels:
# [1] = tested on: MCF7-MnSOD^K68Q cells; experiment: Clonogenic cell survival in MCF7-MnSOD^K68Q cells; type: cell-based, human
# Procedure: FIGS. 25a-25b show clonogenic cell survival studies in MCF7-MnSOD^K68Q cells exposed to either: Fulv at 100 nM (in FIG. 25a); or Palb at 0.5 µM (in FIG. 25b) using standard methods. […] Error bars are ± 1 SEM. Experiments in triplicate. *** p < 0.001.
# (§1) Clonogenic cell survival assay. For the clonogenic survival analysis, exponentially growing cells were replated using appropriate dilutions, and clonogenic survival was evaluated after 14 days in regular growth medium. Cells were stained with crystal violet, and colonies of >50 cells were counted and utilized to calculate clonogenic survival^46.
# [2] = tested on: MCF7 cells expressing shSIRT3; experiment: Clonogenic cell survival in MCF7-shSIRT3 cells with hydroxy-Tam; type: cell-based, human; settings: 1 µM hydroxy-Tam for 120 h
# Procedure: All experiments were done in triplicate. Error bars represent ± 1 SEM. **p < 0.01, and ***p < 0.001. Three-armed groups were analyzed via a one-way ANOVA statistical analysis with Tukey’s post-analysis, and two-armed groups were analyzed by a t-test.
# as §1
# [3] = tested on: T47D cells expressing shSIRT3; experiment: Clonogenic cell survival in T47D-shSIRT3 cells with hydroxy-Tam; type: cell-based, human; settings: 1 µM 4-hydroxy-Tam for 24 h
# Text: FIGS. 14a-14g are images and plots that illustrate that loss of SIRT3-induced MnSOD—K68 deacetylation leads to hydroxy-Tam resistance, and that such resistance is associated with increased lysine acetylation in human breast cancer cells, while mimicking deacetylation of MnSOD—K68 or pharmacologically mimicking the activity of deacetylated lysine 68 MnSOD with a manganese pentaazamacrocyclic dismutase mimetic has opposing effects. With respect to FIG. 14a, T47D-MnSOD^WT, T47D-MnSOD^K68R, and T47D-MnSOD^K68D permanent cell lines were selected for hydroxy-Tam resistance in 1 µM for 3 months, and clonogenic cell survival experiments were completed. […] With respect to FIG. 14c, T47D and T47D-HTR cells, with and without exposure to 1 µM 4-hydroxy-Tam for 24 h (HT), were measured for hydroxy-Tam response by clonogenic survival experiments. […] The cell lysates were analyzed by immunoblotting with anti-MnSOD-K122-Ac (validated as a SIRT3 deacetylation target in Tao et al., 2010, Cancer Cell), anti-MnSOD, anti-OSCP-K139-Ac (validated as a SIRT3 deacetylation target in Tao et al., 2010, Cancer Cell), anti-OSCP, anti-IDH2K413-Ac (validated as a SIRT3 deacetylation target in Someya et al., 2010, Cancer Cell), anti-IDH2, and anti-actin. […]
# Clonogenic cell survival assay. […] Cells were stained with crystal violet, and colonies of >50 cells were counted and utilized to calculate clonogenic survival^46.
# [4] = tested on: T47D cells constitutively expressing MnSOD^K68Q; experiment: Clonogenic cell survival in T47D-MnSOD^K68Q cells with hydroxy-Tam; type: cell-based, human; settings: 1 µM hydroxy-Tam; compared to cells expressing MnSOD^K68WT or MnSOD^K68R
# [5] = tested on: T47D cells overexpressing MnSOD^K68Q; experiment: MTT cell viability, T47D cells overexpressing MnSOD^K68Q; type: cell-based, human; settings: 48 hours
# Procedure: (§2) In FIGS. 28a-28b, cell lysates of 250 nM, 500 nM, 1 µM cisplatin-resistant and 500pM, 1 nM and 2 nM doxorubicin-resistant MCF7 cells (cultured in drug-containing media for 3 months) were collected and immunoblotted for MnSOD—K68—Ac, MnSOD, actin and tubulin. In FIGS. 28d-28e, cell lysates of 2.5 µM, 5 µM, 10 µM cisplatin-resistant and 5 nM, 10 nM and 20 nM doxorubicin-resistant T47D cells (cultured in drug-containing media for 3 months) were collected and immunoblotted for MnSOD—K68—Ac, MnSOD, actin and tubulin. In FIGS. 28c and 28f, 10,000 MCF7 or T47D cells overexpressed with empty vector, MnSOD^WT, MnSOD^K68R or MnSOD^K68Q were plated in 96 well plate and treated with cisplatin (1 µM for MCF7 and 10 µM for T47D) or doxorubicin (2 nM for MCF7 and 20 nM for T47D) the next day. After 48 hours, MTT assay is conducted to determine the cell viability after chemotherapy drug treatment.
# (§3) Cell proliferation was measured using MTT proliferation assay kit (ab211091). 10,000 exponentially growing cells were plated in regular growth medium per well into 96-well plates in triplicate. Cells were treated with specified drugs after overnight and incubated for 48 hours. […] The absorbance was read at OD=590 nm and used to evaluate cell proliferation.
# [6] = tested on: MCF7 cells overexpressing MnSOD^K68Q; experiment: MTT cell viability, MCF7 cells overexpressing MnSOD^K68Q; type: cell-based, human; settings: 48 hours
# Procedure: as §2, §3
# [7] = tested on: LNCaP-MnSOD^K68Q cells; experiment: Clonogenic cell survival in LNCaP-MnSOD^K68Q cells; type: cell-based; settings: 10 µM of ENZ for 72 hr
# Procedure: In FIG. 20a, clonogenic cell survival experiments were done in LNCaP-ENZR cells infected with lenti-MnSOD^K68R or lenti-MnSOD^K68Q, in the presence of ENZ (10 µM). In FIG. 20b, clonogenic survival assays were done in LNCaP cells infected with lenti-MnSOD^WT, lenti-MnSOD^K68R, and lenti-MnSOD^K68Q, and selected with neomycin, and placed in 10 µM of ENZ for 72 hr. Error bars ± 1 SEM. Experiments were done in triplicate. **p < 0.01.
# FIGS. 21a-21b are a chart and graph showing that pharmacologically mimicking the activity of deacetylated lysine 68 MnSOD with a manganese pentaazamacrocyclic dismutase mimetic both inhibited the growth of LNCaP-ENZR tumors and reversed the enzalutamide resistance in LNCaP-ENZR / LNCaP—MnSOD^K68Q cells and tumors. In FIG. 21a, clonogenic cell survival experiments were performed in LNCaP-ENZR (left two bars) and LNCaP—MnSOD^K68Q (right two bars) treated with ENZ, with or without GC4419 (20 µM) for 5 days. […] Tumor volumes were measured three times a week for 46 days. For each group n=10. Error bars ± 1 SEM. All experiments done in triplicate. **p < 0.01.
# [8] = tested on: rat model of inflammation; settings: cited from earlier work
# [9] = tested on: adult mice; settings: lethal total body irradiation of adult mice; cited from earlier work
# [10] = tested on: rat model of collagen-induced arthritis; settings: cited from earlier work
# [11] = tested on: colon of rats; settings: experimental model of colitis; cited from earlier work
# [12] = tested on: hamster model of acute, radiation-induced oral mucositis; settings: cited from earlier work
molecule,measurement,setting,value
4-hydroxytamoxifen [hydroxy-Tam],cytotoxicity of hydroxy-Tam (clonogenic survival),"[1]; 1 µM hydroxy-Tam for 5 days, compared to cells expressing MnSOD^K68WT or MnSOD^K68R",significant resistance to the cytotoxicity of hydroxy-Tam
same,hydroxy-Tam cytotoxicity (clonogenic survival),[2],resistance to hydroxy-Tam cytotoxicity
same,hydroxy-Tam cytotoxicity (clonogenic survival),[3],resistance to hydroxy-Tam cytotoxicity
same,cytotoxicity of hydroxy-Tam (clonogenic survival),[4],significant resistance to the cytotoxicity of hydroxy-Tam
"[NH2][Pt]([NH2])([Cl])[Cl] [CDDP, cisplatin]",cell viability after drug treatment (MTT),[5]; CDDP 10 µM,higher resistance
same,cell viability after drug treatment (MTT),[6]; CDDP 1 µM,higher resistance
"COc1cccc2c1C(=O)c1c(O)c3c(c(O)c1C2=O)C[C@@](O)(C(=O)CO)C[C@@H]3O[C@H]1C[C@H](N)[C@H](O)[C@H](C)O1 [DXR, doxorubicin]",cell viability after drug treatment (MTT),[5]; DXR 20 nM,higher resistance
same,cell viability after drug treatment (MTT),[6]; DXR 2 nM,higher resistance
"CNC(=O)c1ccc(N2C(=S)N(c3ccc(C#N)c(C(F)(F)F)c3)C(=O)C2(C)C)cc1F [ENZ, enzalutamide, reference compound]",response to ENZ (clonogenic survival),[7],ENZR phenotype
"C[C@]12CC[C@@H]3c4ccc(O)cc4C[C@@H](CCCCCCCCC[S+]([O-])CCCC(F)(F)C(F)(F)F)[C@H]3[C@@H]1CC[C@@H]2O (stereo partly drawn) [Fulv, fulvestrant]",clonogenic tumor cell survival,"[1]; Fulv at 100 nM, compared to MCF7 cells expressing MnSOD^WT",exhibited resistance
[Cl-].[Cl-].[Mn+2].c1cc2nc(c1)CN[C@@H]1CCCC[C@H]1NCCN[C@@H]1CCCC[C@H]1NC2 [GC4403],inflammation,[8],inhibit inflammation
same,radiation damage,[9],attenuate the radiation damage
same,joint disease,[10],prevent joint disease
same,injury to the colon,[11],very significantly reduce the injury to the colon
same,radiation damage,[12],attenuate the radiation damage
